Data published in article PMC12028158, “Synthesis and In Vitro Evaluation of the Anticancer Effect of Novel Phosphonium Vindoline Derivatives” (International Journal of Molecular Sciences, 2025).

Key:
Assay type in all cases: cell-based
NCI-H23 = assay: NCI60 one-dose screen; conditions: Homo sapiens; NCI-H23, 10 μM, one-dose; read-out: Growth percent
HCT-15 [1] = assay: NCI60 five-dose screen; conditions: Homo sapiens; HCT-15, Colon Cancer; read-out: GI50
LOX IMVI [2] = assay: NCI60 five-dose screen; conditions: Homo sapiens, Melanoma, read-out: GI50
MDA-MB-468 = assay: NCI60 five-dose screen; conditions: Homo sapiens, MDA-MB-468, MDA-MB-468, Breast Cancer; read-out: GI50
M14 = assay: NCI60 one-dose screen; conditions: Homo sapiens; M14, 10 μM, one-dose; read-out: Growth percent
CAKI-1 [3] = assay: NCI60 five-dose screen; conditions: Homo sapiens; CAKI-1, Renal Cancer; read-out: GI50
MCF7 [4] = assay: NCI60 one-dose screen; conditions: Homo sapiens; MCF7, 10 μM, one-dose; read-out: Growth percent
LOX IMVI [5] = assay: NCI60 one-dose screen; conditions: Homo sapiens, 10 μM, one-dose, read-out: Growth percent
MOLT-4 = assay: NCI60 five-dose screen; conditions: Homo sapiens; MOLT-4, Leukemia; read-out: GI50
SK-MEL-28 = assay: NCI60 five-dose screen; conditions: Homo sapiens; SK-MEL-28, Melanoma; read-out: GI50
RXF 393 = assay: NCI60 five-dose screen; conditions: Homo sapiens; RXF 393, Renal Cancer; read-out: GI50
CAKI-1 [6] = assay: NCI60 one-dose screen; conditions: Homo sapiens; CAKI-1, 10 μM, one-dose; read-out: Growth percent
RPMI-8226 = assay: NCI60 five-dose screen; conditions: Homo sapiens; RPMI-8226, Leukemia; read-out: GI50
SNB-75 = assay: NCI60 one-dose screen; conditions: Homo sapiens; SNB-75, 10 μM, one-dose; read-out: Growth percent
SK-MEL-5 [7] = assay: NCI60 five-dose screen; conditions: Homo sapiens; SK-MEL-5, Melanoma; read-out: GI50
UACC-257 [8] = assay: NCI60 one-dose screen; conditions: Homo sapiens; UACC-257, 10 μM, one-dose; read-out: Growth percent
NCI-H322M = assay: NCI60 one-dose screen; conditions: Homo sapiens, 10 μM, one-dose, read-out: Growth percent
786-0 = assay: NCI60 five-dose screen; conditions: Homo sapiens; 786-0, Renal Cancer; read-out: GI50
NCI-H522 [9] = assay: NCI60 one-dose screen; conditions: Homo sapiens; NCI-H522, 10 μM, one-dose; read-out: Growth percent
HCT-15 [10] = assay: NCI60 one-dose screen; conditions: Homo sapiens; HCT-15, 10 μM, one-dose; read-out: Growth percent
KM12 = assay: NCI60 five-dose screen; conditions: Homo sapiens, KM12, KM12, Colon Cancer; read-out: GI50
NCI-H460 = assay: NCI60 one-dose screen; conditions: Homo sapiens; NCI-H460, 10 μM, one-dose; read-out: Growth percent
OVCAR-3 = assay: NCI60 one-dose screen; conditions: Homo sapiens; OVCAR-3, 10 μM, one-dose; read-out: Growth percent
UO-31 = assay: NCI60 one-dose screen; conditions: Homo sapiens; UO-31, 10 μM, one-dose; read-out: Growth percent
A549/ATCC = assay: NCI60 one-dose screen; conditions: Homo sapiens; A549/ATCC, 10 μM, one-dose; read-out: Growth percent
SF-539 = assay: NCI60 five-dose screen; conditions: Homo sapiens; SF-539, CNS Cancer; read-out: GI50
Ovarian Cancer panel = assay: NCI60 five-dose screen, panel mean; conditions: Homo sapiens; mean over Ovarian Cancer panel; read-out: GI50 Mean
Melanoma panel = assay: NCI60 five-dose screen, panel mean; conditions: Homo sapiens; mean over Melanoma panel; read-out: GI50 Mean
IGROV1 [11] = assay: NCI60 five-dose screen; conditions: Homo sapiens, IGROV-1; IGROV1, Ovarian Cancer; read-out: GI50
HCT-116 = assay: NCI60 five-dose screen; conditions: Homo sapiens; HCT-116, Colon Cancer; read-out: GI50
T-47D = assay: NCI60 one-dose screen; conditions: Homo sapiens, T47D; T-47D, 10 μM, one-dose; read-out: Growth percent
CCRF-CEM = assay: NCI60 one-dose screen; conditions: Homo sapiens, 10 μM, one-dose, read-out: Growth percent
IGROV1 [12] = assay: NCI60 one-dose screen; conditions: Homo sapiens, IGROV-1; IGROV1, 10 μM, one-dose; read-out: Growth percent
MALME-3M = assay: NCI60 five-dose screen; conditions: Homo sapiens; MALME-3M, Melanoma; read-out: GI50
[13] = system: Non-small Cell Lung Cancer panel; assay: NCI60 five-dose screen, panel mean; conditions: Homo sapiens; mean over Non-small Cell Lung Cancer panel; read-out: GI50 Mean
HCC-2998 = assay: NCI60 five-dose screen; conditions: Homo sapiens; HCC-2998, Colon Cancer; read-out: GI50
OVCAR-5 = assay: NCI60 one-dose screen; conditions: Homo sapiens; OVCAR-5, 10 μM, one-dose; read-out: Growth percent
SNB-19 = assay: NCI60 one-dose screen; conditions: Homo sapiens; SNB-19, 10 μM, one-dose; read-out: Growth percent
Leukemia panel = assay: NCI60 five-dose screen, panel mean; conditions: Homo sapiens; mean over Leukemia panel; read-out: GI50 Mean
Colon Cancer panel = assay: NCI60 five-dose screen, panel mean; conditions: Homo sapiens; mean over Colon Cancer panel; read-out: GI50 Mean
SK-MEL-5 [14] = assay: NCI60 one-dose screen; conditions: Homo sapiens; SK-MEL-5, 10 μM, one-dose; read-out: Growth percent
Breast Cancer panel = assay: NCI60 five-dose screen, panel mean; conditions: Homo sapiens; mean over Breast Cancer panel; read-out: GI50 Mean
MCF7 [15] = assay: NCI60 five-dose screen; conditions: Homo sapiens, MCF7, MCF7, Breast Cancer; read-out: GI50
UACC-257 [16] = assay: NCI60 five-dose screen; conditions: Homo sapiens, UACC-257, UACC-257, Melanoma; read-out: GI50
NCI-H522 [17] = assay: NCI60 five-dose screen; conditions: Homo sapiens; NCI-H522, Non-small Cell Lung Cancer; read-out: GI50
TK-10 = assay: NCI60 one-dose screen; conditions: Homo sapiens; TK-10, 10 μM, one-dose; read-out: Growth percent
OVCAR-4 = assay: NCI60 one-dose screen; conditions: Homo sapiens; OVCAR-4, 10 μM, one-dose; read-out: Growth percent

`CCC12C=CCN3CCC4(c5ccc(OC)cc5N(C)C4C(O)(C(=O)OC)C1OC(=O)c1ccc(C[P+](c4ccccc4)(c4ccccc4)c4ccccc4)cc1)C32` (centres unmarked) [compound 12] showed an activity at 10 µM (NCI-H23) of 0.48%, a GI50 (HCT-15 [1]) of 27.4 µM and a GI50 (LOX IMVI [2]) of 1.82 µM. The GI50 (MDA-MB-468) was 0.186 µM, the activity at 10 µM (M14) was -73.9% and the GI50 (CAKI-1 [3]) was 3.26 µM. It also gave an activity at 10 µM (MCF7 [4]) of -52.8%, an activity at 10 µM (LOX IMVI [5]) of -39.8% and a GI50 (MOLT-4) of 1.47 µM. It also gave a GI50 (SK-MEL-28) of 0.52 µM, a GI50 (RXF 393) of 1.14 µM and an activity at 10 µM (CAKI-1 [6]) of -7.04%. The GI50 (RPMI-8226) was 0.325 µM, the activity at 10 µM (SNB-75) was -61.7% and the GI50 (SK-MEL-5 [7]) was 1.21 µM. It also gave an activity at 10 µM (UACC-257 [8]) of -67.6%, an activity at 10 µM (NCI-H322M) of 19.9% and a GI50 (786-0) of 3.58 µM. The activity at 10 µM (NCI-H522 [9]) was -17.4%, the activity at 10 µM (HCT-15 [10]) was 90.1% and the GI50 (KM12) was 0.514 µM. For the same molecule, the activity at 10 µM (NCI-H460) was -62.8%, the activity at 10 µM (OVCAR-3) was -63.4% and the activity at 10 µM (UO-31) was 88.3%. The activity at 10 µM (A549/ATCC) was 31%, the GI50 (SF-539) was 1.26 µM and the GI50 (Ovarian Cancer panel) was 15.8 µM. The GI50 (Melanoma panel) was 1.03 µM, the GI50 (IGROV1 [11]) was 0.885 µM and the GI50 (HCT-116) was 1.59 µM. It also gave an activity at 10 µM (T-47D) of 7.1%, an activity at 10 µM (CCRF-CEM) of -46.4% and an activity at 10 µM (IGROV1 [12]) of -69.6%. The GI50 (MALME-3M) was 0.652 µM, the GI50 [13] was 2.05 µM and the GI50 (HCC-2998) was 0.991 µM. The activity at 10 µM (OVCAR-5) was 2.52%, the activity at 10 µM (SNB-19) was -72.2% and the GI50 (Leukemia panel) was 0.77 µM. It also gave a GI50 (Colon Cancer panel) of 4.69 µM, an activity at 10 µM (SK-MEL-5 [14]) of -98.5% and a GI50 (Breast Cancer panel) of 0.61 µM. For the same molecule, the GI50 (MCF7 [15]) was 0.442 µM, the GI50 (UACC-257 [16]) was 0.918 µM and the GI50 (NCI-H522 [17]) was 0.491 µM. The activity at 10 µM (TK-10) was 21.4% and the activity at 10 µM (OVCAR-4) was 7.65%.
